Assay in all cases: NCI anticancer screen, dose series, 48 h
For assay [1], the system named is MALME-3M melanoma.
In assay [2] the test system is K-562 leukemia.
The subject of assay [3] is HT29 colon.
Assay [4] deals with UO-31 renal.
Assay [5] has as its system HOP-62 NSCLC.
Assay [6] concerns SK-MEL-28 melanoma.
Assay [7] deals with OVCAR-4 ovarian.
The test system of assay [8] is U251 CNS.
Assay [9] concerns HCT-15 colon.
Assay [10] has as its system RXF 393 renal.

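Method: 48-hour compound exposure of cells in 96-well plates, five concentrations, linear interpolation of endpoints. GI50 marks 50% less growth. TGI marks complete inhibition of growth.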

Experimental findings from PubChem BioAssay (NCI) are described below.

`CCOC(=O)C(=O)Nc1cccc(C)c1C`: the TGI in assay [1], in assay [2], in assay [3], in [4], in [5] and in [6] was over 100 µM in each case. For the same compound, the TGI in assay [7], in [8] and in [9] was over 100 µM throughout.

As to `Cc1nc(N(CCO)CCO)c2sc(=S)n(-c3ccccc3)c2n1`, the TGI in assay [1], in assay [2], in assay [3], in assay [4], in assay [5] and in assay [6] was over 100 µM in each case. For the same compound, the TGI in assay [8] was over 100 µM.

With `COC(=O)C1=C(O)C(C(=O)OC)[C@@]2(O)[C@@H](C(=O)OC)CC[C@@H]1[C@@H]2C(=O)OC` (stereo partly specified), the TGI was 74.3 µM in assay [1]; over 100 µM in assay [2]; over 100 µM in assay [3]; over 100 µM in assay [4]; 75.6 µM in [5]; 61.2 µM in assay [10]. The TGI in assay [6] was over 100 µM; in assay [8], 64.6 µM; in assay [9] it was 64.2 µM.

Consider `BrC1=CN2C[n+]3cc(Br)c4ccccc4c3N=C2c2ccccc21`, for which the TGI is 7.14 µM in assay [1]; 39.5 µM in assay [2]; 38.6 µM in assay [3]; over 100 µM in assay [4]; 16.6 µM in assay [5]; 6.7 µM in [6]. Also, the TGI in assay [7] was 20 µM; in [8], 21.9 µM; in assay [9] it was over 100 µM.

As to `COc1cc(C2S/C(=C/c3ccccc3)C(=O)N2c2ccccc2Cl)cc(OC)c1OC` (stereo unspecified), the TGI in [1] is 82.1 µM; in assay [3] it was 47.5 µM; in assay [4], over 100 µM; in [5] it was over 100 µM; in assay [10] it was 45.1 µM; in assay [6], over 100 µM. For the same compound, the TGI in assay [7] was over 100 µM; in [8], 55.9 µM; in [9], over 100 µM.

Take `CN(CCO)/N=N/c1nc[nH]c1C(N)=O`: the TGI in [1], in assay [3], in assay [5], in [10], in assay [6] and in [7] was over 100 µM in each case. The TGI in [8] and in [9] was over 100 µM in each case.

For `C/C([O-])=C(/c1nc(-c2ccc([N+](=O)[O-])o2)no1)[n+]1cc(C)ccc1C`, the TGI in assay [1] was 28.2 µM; in [2] it was over 51.9 µM; in assay [3], 22.7 µM; in assay [4] it was 40 µM; in assay [5], 37.3 µM; in assay [10], 43.2 µM. Further, the TGI turned out to be 25.6 µM in [6], 63.9 µM in [7], 21.7 µM in assay [8] and 22.3 µM in assay [9].

On to `Cc1ccc(S(=O)(=O)Nc2cc(Sc3ccccc3)c(O)c3ccccc23)cc1`, for which the GI50 in assay [1] was 7.17 µM; in [2] it was 3.38 µM; in assay [3], 20.6 µM; in assay [4] it was 2.88 µM; in [5], 7.99 µM; in assay [10], 3.11 µM. Besides, the GI50 in assay [6] is 4.4 µM; in [7], 1.59 µM; in assay [8] it was 1.94 µM; in assay [9] it was 6.81 µM. The TGI in assay [1] was determined as 19.6 µM; in assay [2], 10.7 µM; in [3] it was 53.1 µM; in assay [4] it was 10.9 µM; in [5], 25.5 µM; in assay [10], 9.38 µM. In addition, the TGI was 15 µM in assay [6], 2.95 µM in [7], 3.84 µM in assay [8] and 25.1 µM in [9].

With `COc1cc(Cc2ccc3c(c2C#N)N(C)c2ccccc2S3)cc(OC)c1OC`, the TGI in assay [1], in [2], in assay [3], in assay [4], in assay [5] and in [10] was over 100 µM throughout. Moreover, the TGI is over 100 µM in [6], over 100 µM in [7], over 100 µM in [8] and 61.3 µM in [9].
